Results taken from PubChem BioAssay (NCI).
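Compound exposure: 48 hours, 5 concentrations, 96-well plates. The concentration for 50% growth inhibition is given as GI50. TGI: concentration producing complete growth inhibition.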

Columns and labels:
Assay in all cases: growth of human tumour cells (NCI), 48 h
K-562 leukemia = tested on: K-562 leukemia
NCI-H226 lung = tested on: NCI-H226 lung
SR leukemia = tested on: SR leukemia
SK-OV-3 ovarian = tested on: SK-OV-3 ovarian
KM12 colon = tested on: KM12 colon
HCC-2998 colon = tested on: HCC-2998 colon
786-0 renal = tested on: 786-0 renal
A549 NSCLC = tested on: A549 NSCLC
LOX IMVI melanoma = tested on: LOX IMVI melanoma
SF-295 CNS = tested on: SF-295 CNS

## [N-]=[N+]=Nc1ncc(-c2ccc(C(F)(F)F)cc2)c(NC2CCCCCC2)n1
K-562 leukemia
  GI50: > 10 µM
  TGI: > 10 µM
NCI-H226 lung
  GI50: > 10 µM
  TGI: > 10 µM
SR leukemia
  GI50: > 10 µM
  TGI: > 10 µM
SK-OV-3 ovarian
  GI50: > 10 µM
  TGI: > 10 µM
KM12 colon
  GI50: > 10 µM
  TGI: > 10 µM
HCC-2998 colon
  GI50: > 10 µM
  TGI: > 10 µM
786-0 renal
  GI50: > 10 µM
  TGI: > 10 µM
A549 NSCLC
  GI50: > 10 µM
  TGI: > 10 µM
LOX IMVI melanoma
  GI50: > 10 µM
  TGI: > 10 µM
SF-295 CNS
  GI50: > 10 µM
  TGI: > 10 µM

## COC(=O)Nc1ccc2ccc3c(NC(=O)OC)ccc4ccc1c2c43 (tested in a mixture with another compound)
K-562 leukemia
  GI50: 3.29 µM
  TGI: > 50 µM
NCI-H226 lung
  GI50: 9.2 µM
  TGI: 31.3 µM
SR leukemia
  GI50: 2.51 µM
  TGI: > 50 µM
SK-OV-3 ovarian
  GI50: 11.6 µM
  TGI: > 50 µM
KM12 colon
  GI50: 3.4 µM
  TGI: > 50 µM
HCC-2998 colon
  GI50: 9.99 µM
  TGI: 37.9 µM
786-0 renal
  GI50: 12.2 µM
  TGI: 41.2 µM
A549 NSCLC
  GI50: 7.78 µM
  TGI: > 50 µM
LOX IMVI melanoma
  GI50: 6.67 µM
  TGI: 19 µM
SF-295 CNS
  GI50: 5.25 µM
  TGI: 30.2 µM

## CCOC(=O)c1cc2c(cc1Cl)SC(N(c1ccc(F)cc1)S(=O)(=O)c1ccc(OC)cc1)=NS2(=O)=O
K-562 leukemia
  GI50: 14.2 µM
  TGI: 31.1 µM
NCI-H226 lung
  GI50: 29.8 µM
  TGI: > 100 µM
SR leukemia
  GI50: 16.8 µM
  TGI: 37.9 µM
SK-OV-3 ovarian
  GI50: 24.3 µM
  TGI: > 100 µM
KM12 colon
  GI50: 22.8 µM
  TGI: 63.9 µM
HCC-2998 colon
  GI50: 18.2 µM
  TGI: 35.2 µM
786-0 renal
  GI50: 24.4 µM
  TGI: 54.1 µM
A549 NSCLC
  GI50: 22 µM
  TGI: > 100 µM
LOX IMVI melanoma
  GI50: 12.9 µM
  TGI: 25.6 µM
SF-295 CNS
  GI50: 25.7 µM
  TGI: 74.8 µM

## CN(C)c1cccc2[nH]c(-c3[nH]ncc3Nc3ccnc(N)n3)nc12
K-562 leukemia
  GI50: 0.0167 µM
  TGI: 1.52 µM
NCI-H226 lung
  GI50: < 0.0159 µM
  TGI: 0.193 µM
SR leukemia
  GI50: < 0.01 µM
  TGI: 5.47 µM
SK-OV-3 ovarian
  GI50: 0.073 µM
  TGI: 2.38 µM
KM12 colon
  GI50: 0.024 µM
  TGI: 0.283 µM
HCC-2998 colon
  GI50: 0.0276 µM
  TGI: 0.488 µM
786-0 renal
  GI50: 0.0247 µM
  TGI: 1.13 µM
A549 NSCLC
  GI50: 0.0331 µM
  TGI: 1.15 µM
LOX IMVI melanoma
  GI50: < 0.01 µM
  TGI: 0.14 µM
SF-295 CNS
  GI50: 0.0172 µM
  TGI: 0.0628 µM

## Cc1sc2ncnc(Sc3nc4ccccc4[nH]3)c2c1C
K-562 leukemia
  GI50: 23.4 µM
  TGI: 97.3 µM
NCI-H226 lung
  GI50: 27.2 µM
  TGI: > 100 µM
SR leukemia
  GI50: 10.6 µM
  TGI: 23 µM
SK-OV-3 ovarian
  GI50: 24.3 µM
  TGI: 65.6 µM
KM12 colon
  GI50: 27.2 µM
  TGI: > 100 µM
HCC-2998 colon
  GI50: 50.4 µM
  TGI: > 100 µM
786-0 renal
  GI50: 37.3 µM
  TGI: > 100 µM
A549 NSCLC
  GI50: 21.5 µM
  TGI: 73 µM
LOX IMVI melanoma
  GI50: 21.2 µM
  TGI: > 100 µM
SF-295 CNS
  GI50: 55.8 µM
  TGI: > 100 µM

## COc1nccc(-c2c(-c3ccc(F)cc3)ncn2C2CCC(O)CC2)n1 (stereo not given)
K-562 leukemia
  GI50: 44.1 µM
  TGI: > 100 µM
NCI-H226 lung
  GI50: > 77.8 µM
  TGI: > 100 µM
SR leukemia
  GI50: 43 µM
  TGI: > 100 µM
SK-OV-3 ovarian
  GI50: 57.3 µM
  TGI: > 100 µM
KM12 colon
  GI50: > 85.6 µM
  TGI: > 100 µM
HCC-2998 colon
  GI50: > 100 µM
  TGI: > 100 µM
786-0 renal
  GI50: > 100 µM
  TGI: > 100 µM
A549 NSCLC
  GI50: 32.4 µM
  TGI: > 100 µM
LOX IMVI melanoma
  GI50: > 92.9 µM
  TGI: > 100 µM
SF-295 CNS
  GI50: > 100 µM
  TGI: > 100 µM

## C/C(=N\NC(N)=S)c1ccc2c(c1)OCO2
K-562 leukemia
  TGI: > 100 µM
NCI-H226 lung
  TGI: > 100 µM
SR leukemia
  TGI: > 100 µM
SK-OV-3 ovarian
  TGI: > 100 µM
KM12 colon
  TGI: > 100 µM
HCC-2998 colon
  TGI: > 100 µM
786-0 renal
  TGI: > 100 µM
A549 NSCLC
  TGI: > 100 µM
LOX IMVI melanoma
  TGI: > 100 µM
SF-295 CNS
  TGI: > 100 µM

## COC(=O)c1c2c(c(C)[n+]([O-])c1C)C(=O)C=C(NCc1ccc(Cl)cc1)C2=O
K-562 leukemia
  GI50: 0.0478 µM
  TGI: 5.25 µM
NCI-H226 lung
  GI50: 1.43 µM
  TGI: 3.52 µM
SR leukemia
  GI50: 0.733 µM
  TGI: 7.91 µM
SK-OV-3 ovarian
  GI50: 1.85 µM
  TGI: 4.64 µM
KM12 colon
  GI50: 0.127 µM
  TGI: 2 µM
HCC-2998 colon
  GI50: 0.354 µM
  TGI: 1.55 µM
786-0 renal
  GI50: 1.32 µM
  TGI: 3.57 µM
A549 NSCLC
  GI50: 0.543 µM
  TGI: 3.05 µM
LOX IMVI melanoma
  GI50: 0.053 µM
  TGI: 1.6 µM
SF-295 CNS
  GI50: 0.362 µM
  TGI: 1.58 µM

## CCOC(=O)C1CCC/C1=N\N=C(N)N (stereo not given) (tested in a mixture with another compound)
K-562 leukemia
  TGI: > 100 µM
NCI-H226 lung
  TGI: > 100 µM
SR leukemia
  TGI: > 100 µM
SK-OV-3 ovarian
  TGI: > 100 µM
KM12 colon
  TGI: > 100 µM
HCC-2998 colon
  TGI: > 100 µM
786-0 renal
  TGI: > 100 µM
A549 NSCLC
  TGI: > 100 µM
LOX IMVI melanoma
  TGI: > 100 µM
SF-295 CNS
  TGI: > 100 µM

## O=C1C(NCCO)=C(N2CC2)C(=O)C(NCCO)=C1N1CC1
K-562 leukemia
  TGI: 84.7 µM
NCI-H226 lung
  TGI: > 94.4 µM
SR leukemia
  TGI: 51.6 µM
SK-OV-3 ovarian
  TGI: > 88 µM
KM12 colon
  TGI: > 100 µM
HCC-2998 colon
  TGI: > 100 µM
786-0 renal
  TGI: > 60.9 µM
A549 NSCLC
  TGI: > 100 µM
LOX IMVI melanoma
  TGI: 41.3 µM
SF-295 CNS
  TGI: 64.6 µM

## O=C1CCC(c2nc3ccccc3o2)C(=O)N1 (stereo not given)
K-562 leukemia
  TGI: > 100 µM
NCI-H226 lung
  TGI: > 100 µM
SR leukemia
  TGI: > 100 µM
SK-OV-3 ovarian
  TGI: > 100 µM
KM12 colon
  TGI: > 100 µM
HCC-2998 colon
  TGI: > 100 µM
786-0 renal
  TGI: > 100 µM
A549 NSCLC
  TGI: > 100 µM
LOX IMVI melanoma
  TGI: > 100 µM
SF-295 CNS
  TGI: > 100 µM
